# Biological target: T1, recombinant human GST-SYK (Homo sapiens, UniProt P43405)
# T1 construct: purchased Carna Biosciences 08-176
# Experiment: Homogeneous Time-Resolved Fluorescence (HTRF) assay for the recombinant human Syk enzyme
# Format: biochemical
# Conditions: HTRF assay, recombinant human GST-SYK; IC50 given as class symbols; read-out: rhSYK Activity
# Summary of the method: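 Phosphotyrosine product from a biotinylated Syk substrate peptide was detected by HTRF (europium antibody/SA-APC, read after 30 min) following a 45-minute room-temperature reaction at 25 μM ATP, with […] preincubated 10 minutes with inhibitor.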
row,Structure (SMILES),IC50
1,"Cc1cc(Nc2nccc(C(F)(F)F)n2)cc(-c2ccnc(NCC(=O)N(C)C)c2)c1 [Example 15.82, N,N-dimethyl-N~2~-[4-(3-methyl-5-{[4-(trifluoromethyl)pyrimidin-2-yl]amino}phenyl)pyridin-2-yl]glycinamide]",100 to 1000 nM
2,"Cc1cc(Nc2nccc(C(F)(F)F)n2)cc(-c2ccnc(NCC3CCC(=O)N3)c2)c1 (stereo not drawn) [Example 15.83, 5-({[4-(3-methyl-5-{[4-(trifluoromethyl)pyrimidin-2-yl]amino}phenyl)pyridin-2-yl]amino}methyl)pyrrolidin-2-one]",< 100 nM
3,"Cc1cc(Nc2nccc(C(F)(F)F)n2)cc(-c2ccnc(N3CC4CNC(CO)C4C3)c2)c1 (stereo not drawn) [Example 15.84, {5-[4-(3-methyl-5-{[4-(trifluoromethyl)pyrimidin-2-yl]amino}phenyl)pyridin-2-yl]octahydropyrrolo[3,4-c]pyrrol-1-yl}methanol]",1000 to 10000 nM
4,"Cc1cc(Nc2nccc(C(F)(F)F)n2)cc(-c2ccnc(N3CC(C)NC(C)C3)c2)c1 (stereo not drawn) [Example 15.85, N-{3-[2-(3,5-dimethylpiperazin-1-yl)pyridin-4-yl]-5-methylphenyl}-4-(trifluoromethyl)pyrimidin-2-amine]",< 100 nM
5,"Cc1cc(Nc2nccc(C(F)(F)F)n2)cc(-c2ccnc(N3CCC(C(=O)O)CC3)c2)c1 [Example 15.87, 1-[4-(3-methyl-5-{[4-(trifluoromethyl)pyrimidin-2-yl]amino}phenyl)pyridin-2-yl]piperidine-4-carboxylic acid]",< 100 nM
6,"Cc1cc(Nc2nccc(C(F)(F)F)n2)cc(-c2cncc(C(=O)NCC(O)CO)c2)c1 (stereo not drawn) [Example 15.90, N-(2,3-dihydroxypropyl)-5-(3-methyl-5-{[4-(trifluoromethyl)pyrimidin-2-yl]amino}phenyl)pyridine-3-carboxamide]",< 100 nM
7,"Cc1cc(Nc2nccc(C(F)(F)F)n2)cc(-c2ccc(C(=O)NS(C)(=O)=O)nc2)c1 [Example 16.1, N-(methylsulfonyl)-5-(3-methyl-5-{[4-(trifluoromethyl)pyrimidin-2-yl]amino}phenyl)pyridine-2-carboxamide]",< 100 nM
8,Cc1cc(Nc2nccc(C(F)(F)F)n2)cc(-c2ccc(C(=O)NS(N)(=O)=O)nc2)c1 [Example 16.2],< 100 nM
9,"Cc1cc(Nc2nccc(C(F)(F)F)n2)cc(-c2ccc(C(=O)N3CCOC3=O)nc2)c1 [Example 16.3, 3-{[5-(3-Methyl-5-{[4-(trifluoromethyl)pyrimidin-2-yl]amino}phenyl)pyridin-2-yl]carbonyl}-1,3-oxazolidin-2-one]",< 100 nM
10,"Cc1cc(Nc2nccc(C(F)(F)F)n2)cc(-c2ccc(C(=O)N3CCNC(=O)C3)nc2)c1 [Example 16.4, 4-{[5-(3-Methyl-5-{[4-(trifluoromethyl)pyrimidin-2-yl]amino}phenyl)pyridin-2-yl]carbonyl}piperazin-2-one]",< 100 nM
11,"Cc1cc(Nc2nccc(C(F)(F)F)n2)cc(-c2ccc(C(=O)NCCO)nc2)c1 [Example 16.5, N-(2-hydroxyethyl)-5-(3-methyl-5-{[4-(trifluoromethyl)pyrimidin-2-yl]amino}phenyl)pyridine-2-carboxamide]",< 100 nM
12,"Cc1cc(Nc2nccc(C(F)(F)F)n2)cc(-c2ccc(C(=O)N(C)CCO)nc2)c1 [Example 16.6, N-(2-hydroxyethyl)-N-methyl-5-(3-methyl-5-{[4-(trifluoromethyl)pyrimidin-2-yl]amino}phenyl)pyridine-2-carboxamide]",< 100 nM
13,"Cc1cc(Nc2nccc(C(F)(F)F)n2)cc(-c2ccc(C(=O)NC(C)CO)nc2)c1 (stereo not drawn) [Example 16.7, N-(2-hydroxy-1-methylethyl)-5-(3-methyl-5-{[4-(trifluoromethyl)pyrimidin-2-yl]amino}phenyl)pyridine-2-carboxamide]",< 100 nM
14,"Cc1cc(Nc2nccc(C(F)(F)F)n2)cc(-c2ccc(C(=O)NC3(CO)CC3)nc2)c1 [Example 16.8, N-[1-(hydroxymethyl)cyclopropyl]-5-(3-methyl-5-{[4-(trifluoromethyl)pyrimidin-2-yl]amino}phenyl)pyridine-2-carboxamide]",100 to 1000 nM
15,"CCC(CO)NC(=O)c1ccc(-c2cc(C)cc(Nc3nccc(C(F)(F)F)n3)c2)cn1 (stereo not drawn) [Example 16.9, N-[1-(hydroxymethyl)propyl]-5-(3-methyl-5-{[4-(trifluoromethyl)pyrimidin-2-yl]amino}phenyl)pyridine-2-carboxamide]",100 to 1000 nM
16,"Cc1cc(Nc2nccc(C(F)(F)F)n2)cc(-c2ccc(C(=O)NCC(C)(C)O)nc2)c1 [Example 16.10, N-(2-hydroxy-2-methylpropyl)-5-(3-methyl-5-{[4-(trifluoromethyl)pyrimidin-2-yl]amino}phenyl)pyridine-2-carboxamide]",100 to 1000 nM

# Results, then the compound that gave them:
row,IC50,Structure (SMILES)
1,100 to 1000 nM,"Cc1cc(Nc2nccc(C(F)(F)F)n2)cc(-c2ccc(C(=O)NC(C)(C)CO)nc2)c1 [Example 16.11, N-(2-hydroxy-1,1-dimethylethyl)-5-(3-methyl-5-{[4-(trifluoromethyl)pyrimidin-2-yl]amino}phenyl)pyridine-2-carboxamide]"
2,100 to 1000 nM,"Cc1cc(Nc2nccc(C(F)(F)F)n2)cc(-c2ccc(C(=O)N3CCN(C)CC3)nc2)c1 [Example 16.12, N-(3-methyl-5-{6-[(4-methylpiperazin-1-yl)carbonyl]pyridin-3-yl}phenyl)-4-(trifluoromethyl)pyrimidin-2-amine]"
3,< 100 nM,"Cc1cc(Nc2nccc(C(F)(F)F)n2)cc(-c2ccc(C(=O)NC(C)(CO)CO)nc2)c1 [Example 16.13, N-[2-hydroxy-1-(hydroxymethyl)-1-methylethyl]-5-(3-methyl-5-{[4-(trifluoromethyl)pyrimidin-2-yl]amino}phenyl)pyridine-2-carboxamide]"
4,100 to 1000 nM,"Cc1cc(Nc2nccc(C(F)(F)F)n2)cc(-c2ccc(C(=O)NCc3cnn(C)c3)nc2)c1 [Example 16.14, N-[(1-methyl-1H-pyrazol-4-yl)methyl]-5-(3-methyl-5-{[4-(trifluoromethyl)pyrimidin-2-yl]amino}phenyl)pyridine-2-carboxamide]"
5,100 to 1000 nM,"Cc1cc(Nc2nccc(C(F)(F)F)n2)cc(-c2ccc(C(=O)NCc3cncn3C)nc2)c1 [Example 16.15, N-[(1-methyl-1H-imidazol-5-yl)methyl]-5-(3-methyl-5-{[4-(trifluoromethyl)pyrimidin-2-yl]amino}phenyl)pyridine-2-carboxamide]"
6,100 to 1000 nM,"Cc1cc(Nc2nccc(C(F)(F)F)n2)cc(-c2ccc(C(=O)NCc3cn(C)cn3)nc2)c1 [Example 16.17, N-[(1-methyl-1H-imidazol-4-yl)methyl]-5-(3-methyl-5-{[4-(trifluoromethyl)pyrimidin-2-yl]amino}phenyl)pyridine-2-carboxamide]"
7,< 100 nM,"Cc1cc(Nc2nccc(C(F)(F)F)n2)cc(-c2ccc(C(=O)N3CC(=O)NC(=O)C3)nc2)c1 [Example 16.18, 4-{[5-(3-methyl-5-{[4-(trifluoromethyl)pyrimidin-2-yl]amino}phenyl)pyridin-2-yl]carbonyl}piperazine-2,6-dione]"
8,< 100 nM,"Cc1cc(Nc2nccc(C(F)(F)F)n2)cc(-c2ccc(C(=O)N3CCNC(=O)CC3)nc2)c1 [Example 16.19, 1-{[5-(3-methyl-5-{[4-(trifluoromethyl)pyrimidin-2-yl]amino}phenyl)pyridin-2-yl]carbonyl}-1,4-diazepan-5-one]"

# Reference: US9376418B2, “Substituted pyridine spleen tyrosine kinase (SYK) inhibitors” (Merck Sharp & Dohme Corp., priority 2012, dated 2016)
